The values below come from patent US11628186B2, “Method and composition for the reduction of viral replication, duration and spread of the COVID-19 and the flu” (priority 2017, dated 2023).

Like-named read-outs stand apart in the source and are kept apart here.

Data set [1] has as its system Patients with a severe case of CIVID-19 infection. The data set is classed as in vivo, human. As to conditions: 5 patients treated with just the gas.
The conditions of data set [2]: 1 atm, cited from earlier work.
Data set [3] has as its system porcine respiratory coronavirus (PRCV). The experiment in a line: Antiviral assay with NO donor in swine testicular (ST) cells. As to conditions: NO donor SNAP. The data set is classed as cell-based. The protocol: We examined NO levels by Greiss assay in bronchoalveolar lavage (BAL) of pigs infected with either porcine respiratory coronavirus (PRCV). The antiviral effects of NO on this virus was tested in an in vitro system using a NO donor, S-nitroso-N-acetyl penicillamine (SNAP). We detected a large increase in NO levels in BAL fluids of PRCV-infected pigs. Pulmonary epithelial cell necrosis induced by PRCV coincided with increased NO. […] NO plays a role in innate immunity to respiratory CoV infections by inhibiting viral replication.

The subject of data set [4] is SARS CoV. The data set is classed as cell-based.
Data set [5] deals with patients with lung diseases including COPD. The experiment in a line: Comparison of inhaled salts of pyruvate, 5 ml of 5 mM solution (Table II). As to conditions: for Increased in FEV-1%: 5 ml of 5 mM solution in saline; for Increased in FEV-1% / Percentage Increase in SaO2 over baseline / Percentage increase of Nitric Oxide over baseline / Relief of congestion, coughing and lung tightness / Irritation: inhaled; for Percentage Increase in SaO2 over baseline / Percentage increase of Nitric Oxide over baseline / Relief of congestion, coughing and lung tightness / Overall Rating 1-10 / Irritation: 5 ml of 5 mM solution; for Overall Rating 1-10: 1 most negative, 10 best.

The nature of data set [6]: Mucolytic activity with inhaled acetylcysteine. The data set is classed as in vivo, human. As to conditions: with or versus commercial inhaled acetylcysteine.
Data set [7] deals with patients with lung diseases including COPD. Description: Comparison of inhaled salts of pyruvate, 5 ml of 0.5 mM solution (Table I). As to conditions: for Increased in FEV-1% lung function: 5 ml of 0.5 mM solution in physiological saline; for Overall Rating 1-10: 1 most negative, 10 best.
Data set [8] relates to patients with sinus & lung diseases including IPF and COPD. Description: Salts of pyruvate as 20 mM nasal sprays (Table IX). As to conditions: for Overall Rating 1-10: 20 mM (0.22%) nasal spray, 1 most negative, 10 best; for Increased in FEV-1% / Irritation / Percentage Increase in SaO2 over baseline / Percentage increase of Nitric Oxide over baseline / Relief of congestion, coughing and lung tightness: in vivo. From the text: They never tested the individual salts for their ability to reduce inflammation or increase lung functions.

The test system of data set [9] is patients suffering from Parkinson. Description: Inhaled pyruvate salts in Parkinson patients. The data set is classed as in vivo, human. As to conditions: 1 mM solution in the calcium, phosphate, magnesium formula, inhaled every day for five weeks.
Data set [10] deals with human lung cancer cell line. The note with it: cited from earlier work.
Data set [11] has as its system tumors. Description: Pre-inhalation of the formula before inhaled 3-bromopyruvate. The data set is classed as in vivo, rats. As to the method: The problem with 3-bromopyruvate was its toxicity to normal lung cells. The formula needed to protect noncancerous cells from 3-bromopyruvate and to enhance its effect on tumors, was the addition of inhaled 20 mM solution of sodium pyruvate, calcium, phosphate, magnesium formula inhaled 1-2 hours prior to the inhalation of the 10 mg of 3-bromopyruvate. The investigators were given the sodium pyruvate with calcium, phosphate and magnesium formula and instructed to have the rats inhale the formula 1-2 hours prior the inhalation of the cancer drug. This approach reduced tumor sizes by 90% compared the 60% reduction with 3bromopyruvate by itself. The addition of dichloroacetate with 3-bromopyruvate to the sodium pyruvate with calcium, phosphate and magnesium formula was the best formula decreasing tumor loads by 95%, especially with the addition of magnesium bicarbonate that increased the PH to 7.9 to neutralize the lactic acid produced in tumors that enhance tumorigenesis.

Data set [12] deals with lung tumors. The note with it: cited from earlier work.
The subject of data set [13] is Smokers. The experiment in a line: Inhaled nicotine in pyruvate formulas.
Data set [14] deals with patients with chronic Hypoxemia. The experiment in a line: Various drugs with or without pre-inhaled pyruvate formulas (Table VII). The data set is classed as in vivo, human. The note with it: in vivo.
The mark [15] stands for this setting: 5 ml of 0.5 mM solution, inhaled.
Where [16] appears, read: aerosol, 10 mg/5 mL by inhalation, 8 weeks.

In the case of `[N]=O` [nitric oxide], in [1], the “lung surfactants and lung fibrosis” value is listed as “did not increase lung surfactants or reduce lung fibrosis”. Besides, the solubility in water in [2] (20° C.) is listed as 4.6 ml/100 ml; in [2] (60° C.), 2.37 ml/100 ml. The PRCV replication result in [3] is “significantly inhibited PRCV replication”. Besides, the “replication cycle of SARS CoV” value in data set [4] was “specifically inhibits the replication cycle of SARS CoV”.
Consider `CC(=O)C(=O)N[C@@H](CS)C(=O)O` [Pyruvyl-cysteine], for which, in data set [5], the “Increased in FEV-1%” value worked out at 5%; the “Percentage Increase in SaO2 over baseline” value (from here on “Percentage Increase in SaO2”) is 0%; the “Percentage increase of Nitric Oxide over baseline” value was determined as 1%; the “Relief of congestion, coughing and lung tightness” value (“Relief of congestion” for short) was found to be 8. The “Overall Rating 1-10” value in data set [5] is on record as 8. The mucolytic activity entry in data set [6] is on record as “as effective as acetylcysteine”. The “Increased in FEV-1% lung function” value in [7] (inhaled) was 11%. For the same compound, in [7] (setting [15]), the “Percentage Increase in SaO2” value is listed as 0%; the “Percentage decrease or increase of Nitric Oxide over baseline” value (“Percentage decrease or increase” for short) turned out to be 0%; the “Relief of congestion” value amounted to 5. Moreover, in data set [7] (5 ml of 0.5 mM solution), the “Overall Rating 1-10” value turned out to be 8.
In the case of `CC(=O)C(=O)[O-].[Li+]` [Lithium, lithium pyruvate], in data set [8], the “Overall Rating 1-10” value is 2, the “Increased in FEV-1%” value turned out to be 0.0%, the Irritation result is on record as “Yes” and the “Percentage Increase in SaO2” value was “No”. In addition, in [8], the “Percentage increase of Nitric Oxide over baseline” value is 00.0%; the “Relief of congestion” value was 2. Moreover, in [5], the “Increased in FEV-1%” value is given as 1.0%, the Irritation result is “Yes”, the “Percentage Increase in SaO2” value is “No” and the “Percentage increase of Nitric Oxide over baseline” value is 28.0%. In addition, in data set [5], the “Relief of congestion” value turned out to be 2; the “Overall Rating 1-10” value is given as 2. Further, in [9], the shaking entry is reported as “substantially reduced”. In data set [7] (inhaled), the “Increased in FEV-1% lung function” value is recorded as 1.0% and the bronchial dilator effect result was “acting as a bronchial dilator”. For the same compound, in data set [7] (setting [15]), the Irritation entry was “Yes”; the “Percentage Increase in SaO2” value is on record as “No”; the “Percentage decrease or increase” value was “+6.0%”; the “Relief of congestion” value came to 2. The “Overall Rating 1-10” value in data set [7] (5 ml of 0.5 mM solution) turned out to be 2. Moreover, in data set [7] (5 mls of a 0.5 mM inhalation solution), the “reduction of nitric oxide” value is on record as “did not reduce nitric oxide”. For the same compound, the “irritation in the nasal cavities compared with the lungs” value in data set [7] (evaluated in the nasal cavities) is “even more irritating”. Also, in data set [7] (inhaled into the lungs), the “Irritation” value is “irritating”.
In the case of magnesium pyruvate, in [8], the “Overall Rating 1-10” value was determined as 4, the “Increased in FEV-1%” value stood at 4.0%, the Irritation result is reported as “slight” and the “Percentage Increase in SaO2” value was “no”. For the same compound, in data set [8], the “Percentage increase of Nitric Oxide over baseline” value came to 5.1%; the “Relief of congestion” value was determined as 6. In data set [5], the “Increased in FEV-1%” value is 2.0%, the Irritation entry is given as “None”, the “Percentage Increase in SaO2” value is on record as “no” and the “Percentage increase of Nitric Oxide over baseline” value came to 5.1%. Also, in [5], the “Relief of congestion” value worked out at 6; the “Overall Rating 1-10” value turned out to be 7. Moreover, the shaking entry in data set [9] is reported as “also worked”. In data set [7] (inhaled), the “Increased in FEV-1% lung function” value came out at 12.0%. Further, in data set [7] (setting [15]), the Irritation entry is “None”; the “Percentage Increase in SaO2” value is listed as “no”; the “Percentage decrease or increase” value is on record as −2.0%; the “Relief of congestion” value is listed as 6. In [7] (5 ml of 0.5 mM solution), the “Overall Rating 1-10” value came out at 7. Also, the “FEV1” value in data set [7] (5 mls of a 0.5 mM pyruvate inhalation solution in COPD and asthmatic patients) stood at 10%.
For `O=C(O)C(=O)CBr` [3-bromopyruvate], in data set [10], the apoptosis entry was “induced apoptosis through caspase-3, and PARP”. In addition, the reduced tumor sizes in data set [11] (20 mM sodium pyruvate, calcium, phosphate, magnesium formula inhaled 1-2 hours prior to 10 mg of 3-bromopyruvate) is reported as 90%. The “reduction of tumor sizes” value in [11] (by itself) was 60%. Further, in [12] (setting [16]), the decreased tumor load was 60% and the decreased tumor multiplicity is 40%. For the same compound, the liver toxicity result in data set [12] (aerosolized) was “did not accompany any liver toxicity”.
Turning to `CN1CCCC1c1cccnc1` (stereo not shown) [Nicotine], the “ability of each patient to determine the effect of nicotine delayed” value in [13] (Nicotine delivered only with sodium pyruvate in saline solution) is 26%. In addition, the tolerability result in data set [13] (nicotine in modified formula sodium pyruvate and calcium, phosphate and magnesium, nasal or lungs) is given as “well tolerated”. Also, in [14], the “SaO2 Measurements taken after medication and compared to baseline” value was −3; the “SaO2 Measurements taken after taking the medication and compared to baseline” value is “+2”; the “SaO2 measurements taken after taking medication and compared to baseline” value is recorded as “+4”.
